From US7595320B2, “Hydrazinocarbonyl-thieno[2,3-C]pyrazoles, process for preparing them, compositions containing them and use thereof” (Aventis Pharma S.A., priority 2005, dated 2009)
pIC50: −log10 of the molar value. Structures can show the parent of a compound that is named as a salt.

Tests used:
Type in all cases: biochemical
Tie2 = biological target: T1, Tie2 (Homo sapiens, UniProt Q02763); assay: Tie2 kinase test, phosphorylation of PLC with GST-Tie2; conditions: GST-Tie2 intracellular domain 776-1124
T1 construct: amino acids of the intracellular domain 776-1124; made in house; host or cells: baculovirus expression (pFastBacGT vector)
T1 sequence (Q02763 776-1124): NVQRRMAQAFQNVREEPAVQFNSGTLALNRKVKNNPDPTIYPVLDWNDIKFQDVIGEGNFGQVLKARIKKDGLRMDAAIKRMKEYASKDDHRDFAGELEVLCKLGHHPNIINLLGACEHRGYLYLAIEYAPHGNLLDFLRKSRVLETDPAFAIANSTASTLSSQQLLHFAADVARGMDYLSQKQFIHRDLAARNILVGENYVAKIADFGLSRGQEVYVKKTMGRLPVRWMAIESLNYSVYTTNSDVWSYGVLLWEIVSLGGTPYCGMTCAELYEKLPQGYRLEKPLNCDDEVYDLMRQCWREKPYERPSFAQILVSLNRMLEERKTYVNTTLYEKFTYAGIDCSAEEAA
Description: The coding sequence of human Tie2 corresponding to the amino acids of the intracellular domain 776-1124 was generated by PCR using the cDNA isolated from a human placenta as a model. This sequence was introduced into a pFastBacGT baculovirus expression vector in the form of a GST fusion protein.
The inhibitory effect of the molecules is determined in a test of phosphorylation of PLC with Tie2 in the presence of GST-Tie2 purified to about 80% homogeneity. The substrate is composed of the SH2-SH3 fragments of PLC expressed in the form of a GST fusion protein.
The kinase activity of Tie2 is measured in a MOPS 20 mM pH 7.2 buffer, containing 10 mM MgCl2, 10 mM MnCl2, 1 mM DTT, 10 mM of glycerophosphate. In a 96-well FlashPlate plate maintained on ice, a reaction mixture is deposited, composed of 70 μL of kinase buffer containing 100 ng of enzyme GST-Tie2 per well. Next, 10 μL of the test molecule diluted in DMSO to a maximum concentration of 10% are added. For a given concentration, each measurement is performed four times. The reaction is initiated by adding 20 μL of solution containing 2 μg of GST-PLC, 2 μm of cold ATP and 1 μCi of ^33P[ATP]. After incubation for one hour at 37° C., the reaction is stopped by adding 1 volume (100 μl) of 200 mM EDTA. After removal of the incubation buffer, the wells are washed three times with 300 μL of PBS. The radioactivity is measured on a MicroBeta1450 Wallac.
The inhibition of the Tie2 activity is calculated and expressed as a percentage of inhibition relative to the control activity determined in the absence of compound.

Aurora2 = biological target: T2, Aurora2 (Homo sapiens, UniProt O14965); assay: Aurora2 enzymatic test, NuMA phosphorylation with [33P]ATP, Flashplate; conditions: whole recombinant protein, 1 μM ATP
T2 construct: Aurora2: whole recombinant protein comprising an N-terminal histidine tail; His tag (N); made in house; host or cells: E. coli
T2 sequence (O14965 1-403): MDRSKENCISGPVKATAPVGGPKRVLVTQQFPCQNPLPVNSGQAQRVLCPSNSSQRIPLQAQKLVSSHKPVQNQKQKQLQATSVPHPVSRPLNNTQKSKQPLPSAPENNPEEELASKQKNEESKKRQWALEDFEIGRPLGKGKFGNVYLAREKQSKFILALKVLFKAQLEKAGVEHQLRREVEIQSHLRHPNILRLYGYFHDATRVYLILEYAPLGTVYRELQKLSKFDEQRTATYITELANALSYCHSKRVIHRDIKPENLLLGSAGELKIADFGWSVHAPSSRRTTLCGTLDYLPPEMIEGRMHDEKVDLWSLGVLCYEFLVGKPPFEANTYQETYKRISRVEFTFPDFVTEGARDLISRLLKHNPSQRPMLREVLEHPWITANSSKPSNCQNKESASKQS
Description: (§1) The inhibitory effect of compounds with respect to the kinases Aurora1 and Aurora2 is determined by means of an enzymatic test using radioactivity detection.
(§2) The kinase activity of Aurora1 and Aurora2 is evaluated via the phosphorylation of the substrate Numa-histidine in the presence of radiolabelled ATP ([^33P]ATP) using 96-well Flashplate plates in which the nickel chelate is bound to the surface of the microplate. The amount of ^33P phosphate incorporated into the NuMA substrate is proportional to the activity of the enzyme Aurora1 or Aurora2.
Aurora2: whole recombinant protein comprising an N-terminal histidine tail, was expressed in E. coli and purified to more than 82%.
(§3) NuMA (nuclear protein that combines with the mitotic apparatus): 424-amino acid fragment, expressed in E. coli, the N-terminal end of which has been labeled with histidine, and used as substrate for the two Aurora enzymes.
(§4) The microplates used are 96-well Flash-Plate plates, nickel chelate (Perkin-Elmer, model SMP107).
(§5) The products to be evaluated are incubated in a reaction volume of 100 μL per well, in the presence of 10 nM of Aurora1 or Aurora2, 500 nM of NuMA substrate in a buffer composed of 50 mM Tris/HCl (pH 7.5), 50 mM NaCl, 5 mM MgCl2 (Aurora-B) or 10 mM MgCl2 (Aurora-A) and 1 mM DTT, at 37° C.
(§6) 80 μL of enzyme/substrate incubation buffer are distributed in each well, followed by 10 μL of product to be evaluated, at variable concentrations. The reaction is initiated by adding 1 μM final of ATP containing 0.2 μCi of [^33P]ATP (10 μL). After incubating for 30 minutes, the reaction is quenched by simple removal of the reaction buffer and each well is washed twice with 300 μl of Tris/HCl buffer. The radioactivity is then measured in each well using a Packard, Top-Count model scintillation machine.
(§7) The control enzymatic activity of Aurora is expressed by the number of counts per minute obtained over 30 minutes after subtracting the background noise (reaction mixture containing no enzyme). The evaluation of the various test products is expressed as a percentage of inhibition of the Aurora activity relative to the control.

Aurora1 = biological target: T3, Aurora1 (Homo sapiens, UniProt Q96GD4); assay: Aurora1 enzymatic test, NuMA phosphorylation with [33P]ATP, Flashplate; conditions: Aurora-B/INCENP-C3 recombinant complex, 1 μM ATP
T3 construct: His tag (N); made in house
T3 sequence (Q96GD4 whole entry, species assumed): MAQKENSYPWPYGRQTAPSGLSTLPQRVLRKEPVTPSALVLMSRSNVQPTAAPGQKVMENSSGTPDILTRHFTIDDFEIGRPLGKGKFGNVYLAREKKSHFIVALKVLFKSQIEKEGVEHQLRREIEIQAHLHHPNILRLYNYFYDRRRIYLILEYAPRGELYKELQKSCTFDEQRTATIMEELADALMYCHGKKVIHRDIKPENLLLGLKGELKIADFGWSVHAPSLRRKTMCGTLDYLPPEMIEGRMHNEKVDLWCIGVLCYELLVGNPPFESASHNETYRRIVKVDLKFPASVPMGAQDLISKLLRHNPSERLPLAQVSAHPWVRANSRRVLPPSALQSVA
T3 sequence (Q9NQS7 835-903 partner limits assumed, species assumed): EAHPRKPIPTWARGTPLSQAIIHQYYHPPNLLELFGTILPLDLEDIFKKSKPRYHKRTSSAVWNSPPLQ
Description: as §1, §2
Aurora1: Aurora-B/INCENP-C3 recombinant complex, purified to about 50%, the N-terminal end of Aurora-B of which has been labeled with histidine.
as §3, §4, §5, §6, §7

CDK2/cycline E = biological target: T4, CDK2/cycline E (Homo sapiens, UniProt P24941); assay: CDK2/cyclineE Flashplate test in 96-well format; conditions: CDK2/cycline E complex, 1 μM ATP
T4 construct: made in house; host or cells: Sf21 insect cells (baculovirus coinfection)
Description: Two recombinant baculoviruses bearing the human sequences coding, respectively, for CDK2 and cyclineE (the latter bearing a C-terminal hexahistidine tag) are used to coinfect Sf21 insect cells. Two to three days after the start of coinfection, the cells are harvested by centrifugation and then stored at −40° C. until the time of use.
A format in streptavidin-coated 96-well plates is used to test the activity of the compounds on the kinase activity of CDK2/cycline E.
To perform this test, the biotinylated peptide substrate, a fragment of the protein pRb (biotinyl-[…]-OH), is dissolved at a concentration of 1 mM in kinase buffer (HEPES/NaOH 50 mM, NaCl 1 mM, MgCl2 5 mM, pH 7.5) in order to constitute a stock solution stored at −20° C. in the form of 110 μL aliquots. On the day of the experiment, an aliquot of this solution is thawed and diluted in kinase buffer containing 1 mM of dithiothreitol, added to the buffer extemporaneously, in order to obtain a concentration of 14.3 μM. 70 μL of this solution are added to each well of the Flashplate in order to obtain a final substrate concentration of 10 μM during the enzymatic reaction performed in a final volume of the reaction medium of 100 μL (cf. below).
Intermediate dilutions of inhibitors (products of the invention) at various concentrations are prepared in DMSO from stock solutions at 10 mM in separate tubes. Dilutions at 1000 μM, 333.3 μM, 111.1 μM, 37.03 μM, 12.35 μM, 4.11 μM and 1.37 μM are thus prepared. One μL of each of these solutions (or 1 μL of DMSO for the controls) is transferred into the wells of the test plate.
19 μl of a solution of a mixture of adenosine triphosphate (ATP) and of ATPγ^33P in kinase buffer at a total concentration of 5.26 μM of ATP and 52.6 μCi/ml of ^33P are then added to each well. The enzymatic reaction is initiated by adding 10 μL per well of a 200 nM solution of CDK2/cycline E in kinase buffer containing 1 mM of dithiothreitol (or 10 μL of kinase buffer containing 1 mM of dithiothreitol for the reaction blanks).
After addition of each of the reagents, the final volume of each well is 100 μL, the final concentration of substrate is 10 μM, the final inhibitor concentrations are 10 μM, 3.33 μM, 1.11 μM, 0.37 μM, 0.123 μM, 0.041 μM and 0.014 μM (according to the concentration of the intermediate dilution), the final ATP concentration is 1 μM, the final amount of ^33P is 1 μCi/well, and the final concentration of CDK2/cycline E complex is 20 nM.
After addition of all of the reagents, the test plate is incubated at 30° C. with orbital shaking at 650 rpm.
When the incubation is complete, the plate is washed three times with 300 μL per well of PBS (phosphate-buffered saline, pH=7.4, without calcium or magnesium, reference 10010-015, Gibco BRL). The incorporation of ^33P to the peptide is quantified by scintillation counting with a Packard Topcount.NXT machine.

Structure (SMILES)	pIC50 (Tie2)	pIC50 (Aurora2)	pIC50 (Aurora1)	pIC50 (CDK2/cycline E)
CCN(CC)Cc1ccc(C(=O)Nc2n[nH]c3sc(C(=O)NN(C)c4ccccc4)cc23)cc1 [Example 15a, 4-diethylaminomethyl-N-[5-(N′-methyl-N′-phenylhydrazinocarbonyl)-1H-thieno[2,3-c]pyrazol-3-yl]benzamide trifluoroacetate]	6.21	7.92	6.94	6.68
CCN(CC)Cc1ccc(C(=O)Nc2n[nH]c3sc(C(=O)NN(C)c4ccc(Cl)cc4)cc23)cc1 [Example 15b, N-{5-[N′-(4-chlorophenyl)-N′-methylhydrazinocarbonyl]-1H-thieno[2,3-c]pyrazol-3-yl}-4-diethylaminomethylbenzamide]	6.41	7.43	6.48	7.09
CN(NC(=O)c1cc2c(NC(=O)c3ccc(CN4CCNCC4)cc3)n[nH]c2s1)c1ccc(Cl)cc1 [Example 13b, N-{5-[N′-(4-chlorophenyl)-N′-methylhydrazinocarbonyl]-1H-thieno[2,3-c]pyrazol-3-yl}-4-piperazin-1-ylmethylbenzamide]	6.49	7.07	6.74	7.31
CN(NC(=O)c1cc2c(NC(=O)c3ccc(OCCN4CCOCC4)cc3)n[nH]c2s1)c1ccccc1 [Example 46, N-[5-(N′-methyl-N′-phenylhydrazinocarbonyl)-1H-thieno[2,3-c]pyrazol-3-yl]-4-(2-morpholin-4-ylethoxy)benzamide]	6.56	8.22	7.92	7.00
CN1CCN(Cc2ccc(C(=O)Nc3n[nH]c4sc(C(=O)NN(C)c5ccccc5)cc34)cc2)CC1 [Example 10, N-[5-(N′-methyl-N′-phenylhydrazinocarbonyl)-1H-thieno[2,3-c]pyrazol-3-yl]-4-(4-methylpiperazin-1-ylmethyl)benzamide]	6.44	7.34	6.99	7.04

Second part, the molecule after the results:

pIC50 (Tie2)	pIC50 (Aurora2)	pIC50 (Aurora1)	pIC50 (CDK2/cycline E)	Structure (SMILES)
7.54	8.40	8.40	6.92	CN1CCN(c2ccc(C(=O)Nc3n[nH]c4sc(C(=O)NN(C)c5ccccc5)cc34)cc2)CC1 [Example 35, N-[5-(N′-methyl-N′-phenylhydrazinocarbonyl)-1H-thieno[2,3-c]pyrazol-3-yl]-4-(4-methylpiperazin-1-yl)benzamide]
7.25	7.70	7.49	7.27	CCN(NC(=O)c1cc2c(NC(=O)c3ccc(N4CCN(C)CC4)cc3)n[nH]c2s1)c1ccc(F)cc1 [Example 37, N-{5-[N′-ethyl-N′-(4-fluorophenyl)hydrazinocarbonyl]-1H-thieno[2,3-c]pyrazol-3-yl}-4-(4-methylpiperazin-1-yl)benzamide]
6.89	8.22	7.92	6.66	CN1CCN(c2ccc(C(=O)Nc3n[nH]c4sc(C(=O)NN(C)Cc5ccccc5)cc34)cc2)CC1 [Example 30, N-[5-(N′-benzyl-N′-methylhydrazinocarbonyl)-1H-thieno[2,3-c]pyrazol-3-yl]-4-(4-methylpiperazin-1-yl)benzamide]
7.21	8.22	7.62	5.95	CC(C)CN(NC(=O)c1cc2c(NC(=O)c3ccc(N4CCN(C)CC4)cc3)n[nH]c2s1)c1ccc(F)cc1 [Example 42, N-{5-[N′-(4-fluorophenyl)-N′-isobutylhydrazinocarbonyl]-1H-thieno[2,3-c]pyrazol-3-yl}-4-(4-methylpiperazin-1-yl)benzamide]
7.12	–	8.10	6.54	CN1CCCN(c2ccc(C(=O)Nc3n[nH]c4sc(C(=O)NN(C)c5ccccc5)cc34)cc2)CC1 [Example 47, 4-(4-methyl[1,4]diazepan-1-yl)-N-[5-(N′-methyl-N′-phenylhydrazinocarbonyl)-1H-thieno[2,3-c]pyrazol-3-yl]benzamide]
8.10	–	7.89	7.00	CCN(NC(=O)c1cc2c(NC(=O)c3ccc(N4CCN(C)CC4)cc3)n[nH]c2s1)c1ccccc1 [Example 33, N-[5-(N′-ethyl-N′-phenylhydrazinocarbonyl)-1H-thieno[2,3-c]pyrazol-3-yl]-4-(4-methylpiperazin-1-yl)benzamide]
